According to US20200085776A1, “Methods of Reducing C-Reactive Protein and/or Treating Cardiovascular Disease” (CARDAX, INC., priority 2018, published 2020):

System: C-reactive protein (CRP)
Assay: CRP (hs-CRP) in blood, CHASE clinical study
Format: in vivo, human
Details: Group Z 48 mg BID
Text: This is a two-part study comprising Part I and Part II. Following screening, Part I consists of a randomized, double-blind, placebo controlled dosing period of up to 12 weeks. The study shall be conducted at one or more study sites in Hawaii. Approximately 360 subjects qualified after completion of screening procedures shall be randomized in a 1:1:1 ratio to one of three treatment groups, per Table 1.
The Part I 12-week double-blind dosing period commences with V2, including randomization and first dose of study product, and continues with study visits at Week 1-2 (V3), Week 4 (V4), Week 8 (V5), and Week 12 (V6). V6 procedures will conclude Part I.
Blood shall be obtained at each visit for CRP. The screening specimen shall be processed at the local lab and reported to the study staff for eligibility determination; CRP samples at V7 and V8 may also be processed locally and reported directly to study staff. Samples for CRP from V2 through V6 may be batched, processed, and reported as specified in the Laboratory Manual.
At each these visits, blood was obtained for measurement of CRP, among other parameters. Table 7A provides a summary of the CRP measurements (mg/L) at each visit and Table 7B provides a summary of the differences of CRP levels between V2 and V6.

[1] = V1 screening, subjects with baseline level greater than 2.0
[2] = V2 baseline pre-dose, all subjects
[3] = V2 baseline pre-dose, subjects not taking a hypertension agent
[4] = V2 baseline pre-dose, subjects not taking any cardiac therapeutic agent
[5] = V2 baseline pre-dose, subjects not taking statins
[6] = V2 baseline pre-dose, subjects taking an anti-diabetic agent
[7] = V2 baseline pre-dose, subjects with CAD
[8] = V2 baseline pre-dose, subjects with DM2, hypertension and hyperlipidemia but not CAD
[9] = V2 baseline pre-dose, subjects with Diabetes Mellitus Type II
[10] = V2 baseline pre-dose, subjects with baseline level greater than 2.0
[11] = V2 baseline pre-dose, subjects with hyperlipidemia
[12] = V3 Week 1-2, subjects with baseline level greater than 2.0
[13] = V4 Week 4, subjects with baseline level greater than 2.0
[14] = V5 Week 8, subjects with baseline level greater than 2.0
[15] = V6 Week 12, subjects not taking a hypertension agent
[16] = V6 Week 12, subjects not taking any cardiac therapeutic agent
[17] = V6 Week 12, subjects not taking statins
[18] = V6 Week 12, subjects taking an anti-diabetic agent

In the case of CC1=C(/C=C/C(C)=C/C=C/C(C)=C/C=C/C=C(C)/C=C/C=C(C)/C=C/C2=C(C)C(=O)C(O)CC2(C)C)C(C)(C)CC(O)C1=O (stereo not drawn) [Astaxanthin, astaxanthin], the “CRP Max” value (V1 screening, all subjects) is reported as 14.17 mg/L, the “CRP Mean (SD)” value (V1 screening, all subjects) is reported as 5.12 (3.39) mg/L and the “CRP Median” value (V1 screening, all subjects) is reported as 4.20 mg/L. For the same molecule, the “CRP Min” value (V1 screening, all subjects) was 2.03 mg/L, the “CRP Max” value [1] was 14.17 mg/L and the “CRP Mean (SD)” value [1] was 5.65 (3.56) mg/L. The “CRP Median” value [1] was 4.94 mg/L, the “CRP Min” value [1] was 2.03 mg/L and the “CRP Max” value [2] was 8.51 mg/L. For the same molecule, the “CRP Mean (SD)” value [2] was 4.28 (2.32) mg/L, the “CRP Median” value [2] was 4.68 mg/L and the “CRP Min” value [2] was 1.27 mg/L. For the same molecule, the “CRP Max” value [3] was 6.30 mg/L, the “CRP Mean (SD)” value [3] was 4.52 (1.86) mg/L and the “CRP Median” value [3] was 4.68 mg/L. For the same molecule, the “CRP Min” value [3] was 2.59 mg/L, the “CRP Max” value [4] was 8.04 mg/L and the “CRP Mean (SD)” value [4] was 4.55 (2.02) mg/L. For the same molecule, the “CRP Median” value [4] was 4.68 mg/L, the “CRP Min” value [4] was 1.81 mg/L and the “CRP Max” value [5] was 8.51 mg/L. For the same molecule, the “CRP Mean (SD)” value [5] was 4.97 (2.51) mg/L, the “CRP Median” value [5] was 4.83 mg/L and the “CRP Min” value [5] was 1.83 mg/L. For the same molecule, the “CRP Max” value [6] was 8.51 mg/L, the “CRP Mean (SD)” value [6] was 4.48 (2.24) mg/L and the “CRP Median” value [6] was 4.98 mg/L. The “CRP Min” value [6] was 1.27 mg/L, the “CRP Max” value [7] was 6.68 mg/L and the “CRP Mean (SD)” value [7] was 3.49 (2.23) mg/L. The “CRP Median” value [7] was 3.12 mg/L, the “CRP Min” value [7] was 1.27 mg/L and the “CRP Max” value [8] was 8.51 mg/L. The “CRP Mean (SD)” value [8] was 5.26 (2.32) mg/L, the “CRP Median” value [8] was 5.04 mg/L and the “CRP Min” value [8] was 2.59 mg/L. The “CRP Max” value [9] was 8.51 mg/L, the “CRP Mean (SD)” value [9] was 4.78 (2.37) mg/L and the “CRP Median” value [9] was 5.01 mg/L. The “CRP Min” value [9] was 1.27 mg/L, the “CRP Max” value [10] was 8.51 mg/L and the “CRP Mean (SD)” value [10] was 5.25 (1.89) mg/L. For the same molecule, the “CRP Median” value [10] was 5.17 mg/L, the “CRP Min” value [10] was 2.29 mg/L and the “CRP Max” value [11] was 8.51 mg/L. For the same molecule, the “CRP Mean (SD)” value [11] was 3.78 (2.28) mg/L, the “CRP Median” value [11] was 3.12 mg/L and the “CRP Min” value [11] was 1.27 mg/L. For the same molecule, the “CRP Max” value (V3 Week 1-2, all subjects) was 13.08 mg/L, the “CRP Mean (SD)” value (V3 Week 1-2, all subjects) was 4.86 (3.09) mg/L and the “CRP Median” value (V3 Week 1-2, all subjects) was 4.52 mg/L. For the same molecule, the “CRP Min” value (V3 Week 1-2, all subjects) was 1.77 mg/L, the “CRP Max” value [12] was 13.08 mg/L and the “CRP Mean (SD)” value [12] was 5.62 (3.21) mg/L. The “CRP Median” value [12] was 4.88 mg/L, the “CRP Min” value [12] was 2.27 mg/L and the “CRP Max” value (V4 Week 4, all subjects) was 7.81 mg/L. For the same molecule, the “CRP Mean (SD)” value (V4 Week 4, all subjects) was 3.42 (1.84) mg/L, the “CRP Median” value (V4 Week 4, all subjects) was 3.04 mg/L and the “CRP Min” value (V4 Week 4, all subjects) was 0.90 mg/L. For the same molecule, the “CRP Max” value [13] was 7.81 mg/L, the “CRP Mean (SD)” value [13] was 3.94 (1.86) mg/L and the “CRP Median” value [13] was 3.27 mg/L. The “CRP Min” value [13] was 0.90 mg/L, the “CRP Max” value (V5 Week 8, all subjects) was 9.20 mg/L and the “CRP Mean (SD)” value (V5 Week 8, all subjects) was 3.49 (2.06) mg/L. For the same molecule, the “CRP Median” value (V5 Week 8, all subjects) was 3.04 mg/L, the “CRP Min” value (V5 Week 8, all subjects) was 0.91 mg/L and the “CRP Max” value [14] was 9.20 mg/L. For the same molecule, the “CRP Mean (SD)” value [14] was 4.09 (2.07) mg/L, the “CRP Median” value [14] was 4.17 mg/L and the “CRP Min” value [14] was 1.15 mg/L. For the same molecule, the “CRP Max” value (V6 Week 12, all subjects) was 8.84 mg/L, the “CRP Mean (SD)” value (V6 Week 12, all subjects) was 3.41 (2.24) mg/L and the “CRP Median” value (V6 Week 12, all subjects) was 2.53 mg/L. The “CRP Min” value (V6 Week 12, all subjects) was 0.61 mg/L, the “CRP Max” value [15] was 4.30 mg/L and the “CRP Mean (SD)” value [15] was 2.94 (1.20) mg/L. For the same molecule, the “CRP Median” value [15] was 2.48 mg/L, the “CRP Min” value [15] was 2.04 mg/L and the “CRP Max” value [16] was 8.84 mg/L. For the same molecule, the “CRP Mean (SD)” value [16] was 3.13 (2.14) mg/L, the “CRP Median” value [16] was 2.53 mg/L and the “CRP Min” value [16] was 0.61 mg/L. For the same molecule, the “CRP Max” value [17] was 8.84 mg/L, the “CRP Mean (SD)” value [17] was 4.16 (2.57) mg/L and the “CRP Median” value [17] was 3.24 mg/L. For the same molecule, the “CRP Min” value [17] was 1.88 mg/L, the “CRP Max” value [18] was 7.87 mg/L and the “CRP Mean (SD)” value [18] was 3.31 (2.28) mg/L. For the same molecule, the “CRP Median” value [18] was 2.53 mg/L, the “CRP Min” value [18] was 0.61 mg/L and the “CRP Max” value (V6 Week 12, subjects with CAD) was 2.31 mg/L. For the same molecule, the “CRP Mean (SD)” value (V6 Week 12, subjects with CAD) was 1.57 (0.72) mg/L, the “CRP Median” value (V6 Week 12, subjects with CAD) was 1.88 mg/L and the “CRP Min” value (V6 Week 12, subjects with CAD) was 0.61 mg/L.
